Legend:
Format in all cases: binding
DpPorA = assay: Single-molecule sensing: analyte blocking of single DpPorA pore; conditions: 1 M KCl; for ion current blockage of single DpPorA (in words): 10 mM HEPES pH 7.4, am8γCD 10 μM trans at positive voltages, γCD, s8γCD 100 μM cis, D9, R4 10 μM cis
Protocol: (§1) Electrical recordings were carried out by using bilayers of 1,2-diphytanoyl-sn-glycero-3-phosphocholine (DPhPC, Avanti Polar Lipids) formed across ~100 µm in diameter polytetrafluoroethylene (Teflon) film of 25 µm thick (Goodfellow, Cambridge)[59]. The Teflon film is sandwiched between two sides of the Delrin bilayer chamber, called cis and trans compartments (500 µL each). Solvent-free bilayers were formed by pre-treating the aperture with hexadecane in n-pentane (1 μL, 5 mg mL^−1) on each side of the bilayer chamber. Then the bilayer chamber was filled with the electrolyte solution (1 M KCl, 10 mM HEPES, pH 7.4) and DPhPC in n-pentane (2 μL, 5 mg mL^−1) was added to both sides of the chamber. After 5 min, a bilayer was formed when the electrolyte was raised, bringing the two lipid surface monolayers together at the aperture. pPorA pores were formed by adding self-assembled preoligomers extracted from the SDS PAGE gel to the cis side of the chamber. The cWza pores were formed by adding peptide solution in 0.1% DDM (1 µL, 100 µg mL^−1) to the cis side. The cis chamber was connected to the grounded electrode and the trans chamber was attached to the working electrode. A potential difference was applied through a pair of Ag/AgCl electrodes, set in 3% agarose containing 3.0 M KCl. We investigated the ion selectivity of pores using the KCl salt gradient applied across the bilayer chambers (1 M cis /0.15 M trans). The reverse potential was determined to calculate the permeability ratio of K^+ and Cl^- ions across the pore (Supplementary text). The current was amplified using an Axopatch 200B amplifier, digitized with a Digidata 1550B digitizer (pCLAMP 11.0, Molecular Devices, CA) with a low-pass filter frequency of 10 kHz and a sampling frequency of 50 kHz or a low-pass filter frequency of 2 kHz and a sampling frequency of 10 kHz. Single-channel data analysis was conducted using Clampfit 11.0 (Molecular devices, CA). Histogram plotting were performed in OriginPro 2022 (OriginLab).

LpPorA = assay: Single-channel analyte blocking of LpPorA pore; conditions: +50 mV; am8γCD 1 µM trans; 1 M KCl; n = 3
Protocol: as §1, with “A potential difference was applied through a pair of Ag/AgCl electrodes, set in 3% agarose containing 3.0 M KCl. We investigated the ion selectivity of pores using the KCl salt gradient applied across the bilayer chambers (1 M cis /0.15 M trans).” left out, “The current was amplified using an Axopatch 200B amplifier, digitized with a Digidata 1550B digitizer (pCLAMP 11.0, Molecular Devices, CA) with a low-pass filter frequency of 10 kHz and a sampling frequency of 50 kHz or a low-pass filter frequency of 2 kHz and a sampling frequency of 10 kHz. Single-channel data analysis was conducted using Clampfit 11.0 (Molecular devices, CA). Histogram plotting were performed in OriginPro 2022 (OriginLab).” left out

DcWza = assay: Single-channel analyte blocking of DcWza pore; conditions: 100 μM, trans; +100 mV; 1 M KCl, 10 mM HEPES, pH 7.4
Protocol: as §1, with “A potential difference was applied through a pair of Ag/AgCl electrodes, set in 3% agarose containing 3.0 M KCl. We investigated the ion selectivity of pores using the KCl salt gradient applied across the bilayer chambers (1 M cis /0.15 M trans).” left out, “The current was amplified using an Axopatch 200B amplifier, digitized with a Digidata 1550B digitizer (pCLAMP 11.0, Molecular Devices, CA) with a low-pass filter frequency of 10 kHz and a sampling frequency of 50 kHz or a low-pass filter frequency of 2 kHz and a sampling frequency of 10 kHz. Single-channel data analysis was conducted using Clampfit 11.0 (Molecular devices, CA). Histogram plotting were performed in OriginPro 2022 (OriginLab).” left out

NCC1OC2OC3C(CN)OC(OC4C(CN)OC(OC5C(CN)OC(OC6C(CN)OC(OC7C(CN)OC(OC8C(CN)OC(OC9C(CN)OC(OC1C(O)C2O)C(O)C9O)C(O)C8O)C(O)C7O)C(O)C6O)C(O)C5O)C(O)C4O)C(O)C3O (centres unmarked) [am8γCD]
pore block (closure) of DpPorA (S) (DpPorA; 10 μM analyte, cis, negative voltages): 100% | ion current blockage of single DpPorA (in words) (DpPorA): complete pore closure | mean blockage time (τoff) (LpPorA): 0.22 ± 0.03 ms | ion current blockage of DcWza in the open state (in words) (DcWza): no blockages were observed

OC[C@H]1O[C@@H]2O[C@H]3[C@H](O)[C@@H](O)[C@@H](O[C@H]4[C@H](O)[C@@H](O)[C@@H](O[C@H]5[C@H](O)[C@@H](O)[C@@H](O[C@H]6[C@H](O)[C@@H](O)[C@@H](O[C@H]7[C@H](O)[C@@H](O)[C@@H](O[C@H]8[C@H](O)[C@@H](O)[C@@H](O[C@H]9[C@H](O)[C@@H](O)[C@@H](O[C@H]1[C@H](O)[C@H]2O)O[C@@H]9CO)O[C@@H]8CO)O[C@@H]7CO)O[C@@H]6CO)O[C@@H]5CO)O[C@@H]4CO)O[C@@H]3CO [γCD]
ion current blockage of single DpPorA (in words) (DpPorA): did not produce any current blockages
